Measurements reported in publication PMC4142572 (Bioorganic & medicinal chemistry letters, 2014).

Target: hPDE4B (Homo sapiens, UniProt Q07343)
Test: Enzymatic inhibition of PDE4B long isoform in vitro
Assay type: biochemical
Conditions: for PDE4B-subtype selectivity: enzymatic assays using PDE4B1 and PDE4D7

hPDE4B, sequence (Q07343 whole entry, canonical isoform): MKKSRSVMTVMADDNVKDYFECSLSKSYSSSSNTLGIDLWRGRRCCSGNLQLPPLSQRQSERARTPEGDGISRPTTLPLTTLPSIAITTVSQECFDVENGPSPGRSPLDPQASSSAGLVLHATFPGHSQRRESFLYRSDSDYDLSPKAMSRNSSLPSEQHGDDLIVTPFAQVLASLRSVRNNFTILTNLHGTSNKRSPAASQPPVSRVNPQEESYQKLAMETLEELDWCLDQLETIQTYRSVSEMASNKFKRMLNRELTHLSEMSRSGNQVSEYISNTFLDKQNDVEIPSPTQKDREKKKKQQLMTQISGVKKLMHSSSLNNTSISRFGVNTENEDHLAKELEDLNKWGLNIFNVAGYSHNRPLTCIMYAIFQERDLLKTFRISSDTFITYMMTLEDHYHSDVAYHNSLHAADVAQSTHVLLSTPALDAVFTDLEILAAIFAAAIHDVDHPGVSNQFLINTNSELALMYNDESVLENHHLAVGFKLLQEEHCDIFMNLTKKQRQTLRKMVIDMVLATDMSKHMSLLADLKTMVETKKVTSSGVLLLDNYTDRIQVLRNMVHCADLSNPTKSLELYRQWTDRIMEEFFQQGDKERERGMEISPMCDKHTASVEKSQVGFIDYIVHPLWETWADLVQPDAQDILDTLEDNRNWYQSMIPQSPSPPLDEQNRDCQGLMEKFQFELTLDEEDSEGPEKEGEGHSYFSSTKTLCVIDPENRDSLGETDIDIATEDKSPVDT

Structure (SMILES)	PDE4B-subtype selectivity	IC50 [nM]
CCc1c(C)nc(-c2ccc(Cl)s2)nc1Nc1ccc(CC(=O)O)cc1 [Compound 2, reference compound]	highly selective for PDE4B	–
O=C(O)Cc1ccc(Nc2nc(-c3ccc(Cl)cc3)nc(C3CC3)n2)cc1 [Compound 9]	–	770
CCOc1nc(Nc2ccc(OC)cc2)nc(OCC)n1 [Compound 1]	does not show PDE4B-subtype selectivity	–
